Test results as given in patent US6403554B2, “Polyunsaturated fatty acid derivatives and their use” (Ardenia Investments Ltd., priority 1998, dated 2002).
Values joined by “and” are separate entries in the source; they are usually repeats but may differ in a detail not shown here. Equal entries are not always repeated. “Also recorded” adds a separate entry of the source.

Columns and labels:
[1] = tested on: antibody-forming cells (AFC) in the spleen; test: Influence of AFP/compound complexes and their components on humoral immune response (AFC in spleen); type: in vivo, C57B1/6 mice; details: for Dose at which immunostimulating effect in vivo is displayed: compound in a complex with AFP
Experimental: 0.15 ml of AFP/Compound 3 complex was administered intravenously to 6 mice males of C57B1/6 line (weight 18-22 g) in the dose of […] of AFP and 45.5 μg of compound 3 per capita. Simultaneously suspension of 5·10^7 sheep erythrocytes was injected intraperitoneally (0.2 ml per capita). In the group with compound 3 mice were injected intravenously by one in the dose of 45.5 μg. Animals of group with AFP received 9 μg of AFP. Mice of control group were injected intravenously with equal volume of saline. Complex AFP/Compound 3 effect on humoral immune response was analyzed by counting the quantity of AFC in the spleen according to Cunningham (per 10^6 spleen cells and per spleen).
0.15 ml of AFP/Compound 2a complex (1:100) was administered intravenously to 6 mice males of C57B1/6 line (weight 18-22 g) in the dose of 9 μg of AFP and 45.5 μg of compound 2a per capita. Simultaneously, a suspension of 5·10^7 sheep erythrocytes was injected intraperitoneally (0.2 ml per capita). In the group with compound 2a mice were injected intravenously by one in the dose of 45.5 μg. Animals of group with AFP received 9 μg of AFP. Mice in the control group were injected intravenously with an equal volume of saline. The effect of the AFP/Compound 2a complex on humoral immune response was analyzed by counting the quantity of AFC in the spleen according to Cunningham (per 10^6 spleen cells and per spleen).
(§1) 0.15 ml of AFP/Compound 10 complex (1:200) was administered intravenously to 6 male mice of C57B1/6 line (weight 18-22 g) in the dose of 9 μg of AFP and 91 μg of compound 10 per capita. Simultaneously, a suspension of 5·10^7 sheep erythrocytes was injected intraperitoneally (0.2 ml per capita). In the group receiving compound 10 mice were injected intravenously by one in the dose of 91 μg. Animals in the group with AFP received 9 μg of AFP. Micein the control group were injected intravenously with an equal volume of saline. The effect of the AFP/Compound 10 complex on humoral immune response was analyzed by counting the quantity of AFC in the spleen according to Cunningham (per 10^6 spleen cells and per spleen).
as §1, with “AFP/Compound 14” for “AFP/Compound 10”, “compound 14” for “compound 10”, “group with” for “group receiving”, “Animals of” for “Animals in the”, “AFP. Mice in” for “AFP. Micein”
0.15 ml of AFP/Compound 7 complex (1:200) was administered intravenously to 6 male mice of C57B1/6 line (weight 18-22 g) in the dose of 9 μg of AFP and 91 μg of compound 7 per capita. Simultaneously, a suspension of 5·10^7 sheep erythrocytes was injected intraperitoneally (0.2 ml per capita). In the group with compound 7 mice were injected intravenously by one in the dose of 91 μg. Animals of group with AFP received 9 μg of AFP. Mice of control group were injected intravenously with equal volume of saline. AFP/Compound 7 complex effect on humoral immune response was analyzed by counting the quantity of AFC in the spleen according to Cunningham (per 10^6 spleen cells and per spleen).
0.15 ml of AFP/Compound 15 complex (1:200) was administered intravenously to 6 mice males of C57B1/6 line (weight 18-22 g) in the dose of 9 μg of AFP and 91 μg of compound 15 per capita. Simultaneously, a suspension of 5·10^7 sheep erythrocytes was injected intraperitoneally (0.2 ml per capita). In the group receiving compound 15, the mice were injected intravenously by one in the dose of 91 μg. Animals in the AFP-group received 9 μg of AFP. […]

[2] = tested on: hemagglutinating antibodies in serum; test: Humoral immune response: titers of hemagglutinating antibodies in serum; type: in vivo, C57B1/6 mice; details: serum, female mice
Experimental: 0.15 ml of compound 10 was administered intravenously to 6 mice females of CS7B1/6 line (weight 18-22 g) in doses of 45.5, 91 and 136.5 μg of compound 10 per capita for each testing group according to the dose. Simultaneously, a suspension of 5·10^7 sheep erythrocytes was injected intraperitoneally (0.2 ml per capita). Mice in the control group were injected intravenously with equal volume of saline. The effects of compound 10 on humoral immune response were analyzed both by counting the quantity of AFC in the spleen according to Cunningham (per 10^6 spleen cells and per spleen) and estimating the titers of hemagglutining antibodies in serum of the animals (Cunningham A. J., Nature, 1965, Vol.207, No 5001. P.1106-1107), while the titers of hemagglutinating antibodies were evaluated according to litterature (Evans J. et al., Cell, 1974; Vol 3., p.153-158, Feizi T., Menger E., Transfusion, 1970, Vol. 10, p.33-35,).
(§2) 0.15 ml of compound 11 was administered intravenously to 6 female mice of the C57B1/6 line (weight 18-22 g) in doses of 45.5, 91 and 136.5 μg of compound 11 per capita for each testing group according to the dose. Simultaneously, a suspension of 5·10^7 sheep erytrocytes was injected intraperitoneally (0.2 ml per capita). Mice in the control group were injected intravenously with an equal volume of saline. The effects of compound 11 on humoral immune response was analysed both by counting the quantity of AFC in the spleen according to Cunningham (per 10^6 spleen cells and per spleen) and estimating the titers of hemagglutining antibodies in serum of the animals.
as §2, with “12” for “11”, “erythrocytes” for “erytrocytes”, “analyzed” for “analysed”
as §2, with “compound 8” for “compound 11”, “sheep erythrocytes” for “sheep erytrocytes”, “Mice of” for “Mice in”, “response were analyzed” for “response was analysed”
as §2, with “compound 3” for “compound 11”, “Mice of” for “Mice in”, “with” for “with an”, “response were” for “response was”
0.15 ml of compound 4 was administered intravenously to 6 female mice of the C57B1/6 line (weight 18-22 g) in a doses of 45.5, 91 and 136.5 μg of compound 4 per capita for each testing group according to the dose. Simultaneously, a suspension of 5·10^7 sheep erythrocytes was injected intraperitoneally (0.2 ml per capita). […]

[3] = AFP alone 9 μg/mouse i.v., 5-th day, male mice

Molecule: CC1=C(/C=C/C(C)=C/C=C/C(C)=C/C(=O)NCCOP(=O)(O)O)C(C)(C)CCC1 [Compound 1, N-(all-trans-retinoyl)-o-phospho-2-aminoethanol]
- Immunogenic activity ([1]; compound alone, 45.5 μg/mouse): no immunogenic activity; also recorded: do not inhibit immunogenic activity
- Dose at which immunostimulating effect in vivo is displayed [1]: 45.5 μg/mouse

Molecule: CCCCC/C=C\C/C=C\C/C=C\C/C=C\CCCC(=O)N[C@H](C(=O)O)[C@@H](C)OP(=O)(O)O [Compound 7, N-arachidonoyl-o-phospho-L-threonine]
- Immunogenic activity ([1]; compound alone, 91 μg/mouse): no immunogenic activity; also recorded: do not inhibit immunogenic activity
- Dose at which immunostimulating effect in vivo is displayed [1]: 91 μg/mouse

Molecule: CC/C=C\C/C=C\C/C=C\C/C=C\C/C=C\C/C=C\CCC(=O)N[C@@H](COP(=O)(O)O)C(=O)O [Compound 10, N-docosahexaenoyl-o-phospho-L-serine]
- Immunogenic activity ([1]; compound alone, 91 μg/mouse): no immunogenic activity; also recorded: do not inhibit immunogenic activity
- Dose at which immunostimulating effect in vivo is displayed [1]: 91 μg/mouse
- Amount of hemagglutinins ([2]; 45.5 μg/mouse i.v.): 7.8 ± 0.3 Log2 T
- Amount of hemagglutinins ([2]; 91 μg/mouse i.v.): 7.8 ± 0.3 Log2 T
- Amount of hemagglutinins ([2]; 136.5 μg/mouse i.v.): 8.5 ± 0.4 Log2 T

Molecule: CC/C=C\C/C=C\C/C=C\C/C=C\C/C=C\CCCC(=O)N[C@@H](COP(=O)(O)O)C(=O)O [Compound 14, N-eicosapentaenoyl-o-phospho-L-serine]
- Immunogenic activity ([1]; compound alone, 91 μg/mouse): no immunogenic activity; also recorded: do not inhibit immunogenic activity
- Dose at which immunostimulating effect in vivo is displayed [1]: 91 μg/mouse
- Amount of hemagglutinins ([2]; 45.5 μg/mouse i.v.): 6.5 ± 0.3 Log2 T
- Amount of hemagglutinins ([2]; 91 μg/mouse i.v.): 7.0 ± 0.3 Log2 T
- Amount of hemagglutinins ([2]; 136.5 μg/mouse i.v.): 7.2 ± 0.2 Log2 T

Molecule: CC/C=C\C/C=C\C/C=C\C/C=C\C/C=C\CCCC(=O)N[C@H](C(=O)O)[C@@H](C)OP(=O)(O)O [Compound 15, N-eicosapentaenoyl-o-phospho-L-threonine]
- Immunogenic activity ([1]; compound alone, 91 μg/mouse): no immunogenic activity; also recorded: do not inhibit immunogenic activity
- Dose at which immunostimulating effect in vivo is displayed [1]: 91 μg/mouse

B1: human AFP: Alpha-fetoprotein isolated from human cord blood by immunoaffinity chromatography; AFP of Examples 38-41 (protein, UniProt P02771 19-609, looked up)
Alpha-fetoprotein: RTLHRNEYGIASILDSYQCTAEISLADLATIFFAQFVQEATYKEVSKMVKDALTAIEKPTGDEQSSGCLENQLPAFLEELCHEKEILEKYGHSDCCSQSEEGRHNCFLAHKKPTPASIPLFQVPEPVTSCEAYEEDRETFMNKFIYEIARRHPFLYAPTILLWAARYDKIIPSCCKAENAVECFQTKAATVTKELRESSLLNQHACAVMKNFGTRTFQAITVTKLSQKFTKVNFTEIQKLVLDVAHVHEHCCRGDVLDCLQDGEKIMSYICSQQDTLSNKITECCKLTTLERGQCIIHAENDEKPEGLSPNLNRFLGDRDFNQFSSGEKNIFLASFVHEYSRRHPQLAVSVILRVAKGYQELLEKCFQTENPLECQDKGEEELQKYIQESQALAKRSCGLFQKLGEYYLQNAFLVAYTKKAPQLTSSELMAITRKMAATAATCCQLSEDKLLACGEGAADIIIGHLCIRHEMTPVNPGVGQCCTSSYANRRPCFSSLVVDETYVPPAFSDDKFIFHKDLCQAQGVALQTMKQEFLINLVKQKPQITEEQLEAVIADFSGLLEKCCQGQEQEVCFAEEGQKLISKTRAALGV
- Immunogenic activity ([1]; AFP alone, 9 μg/mouse): no immunogenic activity; also recorded: do not inhibit immunogenic activity

B2: rat AFP: Alpha-fetoprotein isolated from neonatal rat serum; AFP of Examples 42-44 (protein, UniProt P02773 25-611, looked up)
Alpha-fetoprotein: RVLHTNEFGIESTLDSSQCPTEKNMFNVATIVVAQFVQDATKAEVNKMSSDALAAMKENTGDGCLENQLSVFLDEICHETELSNKYGFSGCCNQSGVERHQCLLARKKTAPDSVPPFHFPETAESCPAYEENRAMSINTFIYDVSKRNPFLYAPTILYLAAQYDKAVPACCKADNMEECFQTKRASMAKELREGSMLNEHVCAVIRKFGSRNLQAVLIIKLSQKFPKANITEIRKLALDVAHIHEQCCHGNAMECLQDGESVMTHMCSQQEILSSKTAECCKLPTIELGYCIIHAENGDKPEGLTLNPSEFLGDRNFAQFSSEEKLLFMASFLHEYSRNHPNLPVSVILKTAKSYQEILEKCSQSETPSKCQDNMEEELQKHIQESQALAKQSCNLYQKLGPYYLQNLFLIGYTRKAPQLTSAELIDLTGKMVSIASTCCQLSEEKRSACGEGLADIYIGHLCLRHEANPVNSGINHCCSSSYSNRRLCITSFLRDETYVPPPFSEDKFIFHKDLCQAQGRALQTMKQELLINLVKQKPEMTEEQHAAVTADFSGLLEKCCKDQDQEACFAKEGPKLISKTREALGV
- Relative amount of AFC (per 10^6 spleen cells) [1, 3]: 521.4±49.1 and 507.2±27.5 and 346.1±26.8
- Total AFC amount (per spleen) [1, 3]: 59.7±5.1 ·10^3 and 64.6±6.8 ·10^3 and 34.1±3.3 ·10^3
- Immunogenic activity ([1]; AFP alone, 9 μg/mouse): no immunogenic activity; also recorded: do not inhibit immunogenic activity
